Laboratory results as given in US20040152665A1, “Amelioration of decreased weight and growth by n-acylated glucosamines” (priority 2003, published 2004).

Tests used:
[1] = Experiment 1: weight gain of rats on restricted diet (20 g crushed chow/day) with supplement mixed in chow; assay type: in vivo, Sprague-Dawley male rats; details: for average weights and rates of weight gain and growth: days 4 to 11, 20 g chow/day supplemented with 1.0 g GlcNBu or 0.75 g Glc (equimolar) per day per animal; for average weights and rates of weight gain and growth / average rates of weight gain and growth and body weights: compared to control; for average rates of weight gain and growth and body weights: days 12 to 18, 20 g chow/day supplemented with 1.5 g GlcNBu or 1.148 g Glc (equimolar) per day per animal; for stimulation of weight gain and growth (overall, Experiment 1): oral supplementation of restricted diet, 18 days
Excerpt: Twelve Sprague-Dawley male rats of body weights between 85 and 90 g each were placed in metabolic cages with access to food, each in an individual separate feeding compartment, so the animals could consume all their food without loss or spillage. Each morning 20 g of crushed commercial chow, which was less than the average determined amount of crushed chow these animals consume. ad lib, was placed in each individual feeding compartment. This procedure ensured that each animal would completely consume all of the crushed chow placed in each feeding compartment over the 24 hours starting with the said placement of the food. Supplementation of the crushed chow with the compounds to be tested was accomplished by mixing the compound with the chow. All test compounds were fully acceptable by the animals and the feeding compartments were emptied by the animals of the crushed chow and any test compound mixed therein, within 24 hr from the beginning of each feeding period. The animals were allowed free access to drinking water throughout the experimental period, which they consumed ad lib. The animals, obtained from a single commercial shipment, were randomly assigned to three experimental groups with four animals in each group. The experimental groups of animals are designated in FIG. 1 (A & B) as control; N-butyryl-D-glucosamine, shown as formula (II) and abbreviated as GlcNBu; and D-glucose abbreviated as Glc.
Starting at day 1 and continuing to day 12, inclusive, supplementations of the 20 g of crushed chow per day per animal were as following: Control group—no supplementation; GlcNBu group—supplementation with 1.0 g of GlcNBu per day per animal; Glc—supplementation with 0.75 g of Glc per day per animal, which corresponds to an equimolar amount of this GlcNBu supplementation.
On day 12 and continuing through day 18, the crushed chow (20 g given per day per animal) was further supplemented as follows: Control group—no supplementation; GlcNBu group—supplementation with 1.5 g of GlcNBu per day per animal; Glc —supplementation with 1.148 g of Glc per day per animal, which corresponds to an equimolar amount of this GlcNBu supplementation. It will be observed from FIG. 1 that there was no difference in the average rates of weight gain and growth or weights of the animals in the Glc and the control experimental groups of animals during the period of 12 to 18 days, inclusive.

epiphyseal growth plate = test: Experiment 5: 35S[SO4] autoradiography of epiphyseal growth plates; assay type: in vivo, rats; details: for mean density value of autoradiograms in the region of the epiphyseal growth plate (area under scan curve; black = 0, white = 255): 20 hours after 20 μCi 35S[SO4] i.p. on day 18 of Experiment 1, 12 autoradiograms per group, control 125.6; for incorporation of radioisotope into sulfated glycosaminoglycans of proteoglycans of the epiphyseal growth plates, compared to control: 20 hours after 35S[SO4] injection
Procedure: At the end of Experiment 1, described above, the rats were injected intra-peritonealy with 20 μCi of ^35S[SO4] in 1 ml of saline on day 18 and sacrificed 20 hours after the injection. The femurs were removed and the distal ends of the bones were processed histologically for autoradiography. Histological sections of the bones were used to make autoradiograms on X-ray film and were also processed for routine histology, including Toluidine blue staining for assessment of the proteoglycans in the growth plate. No histological abnormalities were detected in the histology sections obtained from any of the experimental groups of animals. The density of the autoradiograms in the region of the epiphyseal growth plate was evaluated and quantified utilizing a scanning microscope and the appropriate software. The software calculates the density of the autoradiogram by scoring a black region (maximally incorporated radioactivity) as 0 and a white region (no incorporated radioactivity) as 255. The areas under the curves of the scan of the autoradiogram (see FIG. 5) are then computed to give the stated values. The mean values of all of the autoradiograms (12 autoradiograms for each group of animals) were: Control, 125.6; Glc-supplemented, 127.1; GlcNBu—supplemented, 143.2. FIG. 5 illustrates scans of typical autoradiograms for the control, Glc-supplemented and GlcNBu-supplemented groups. Each scan is illustrated by a curve whose bases (at the top right and left of the figure) represent radioisotope incorporation at the periphery of the epiphyseal growth plate, while the trough of the curve (in the central part of the figure) represents radioisotope incorporation in the central part of the epiphyseal growth plate. It can be seen that for each of the experimental groups less radioactivity has been incorporated in the central part of the epiphyseal growth plates (the trough of the curve), compared to the periphery of the epiphyseal growth plate (the bases of the curve). The curves with the deepest, middle and least troughs represent autoradiograms from the epiphyses of animals fed with GlcNBu (dots-dashes), Glc (dots) and controls (solid line), respectively, as described in Experiment 1.

[2] = Acute toxicology studies in rats (feeding); assay type: in vivo; details: for rate of weight gain and growth compared to control animals: fed in significant amounts (glucosamine) or equimolar amounts (glucose)
Procedure: Acute toxicology studies were carried out in order to evaluate the toxicity in rats of the aforesaid compounds.

[3] = Experiment 4: weight gain of rats fed ad libitum and gavaged with various amounts of supplement; assay type: in vivo, Sprague Dawley male rats; details: for effect on weight gain: 2000 mg/kg by gavage
Procedure: (§1) For the data illustrated in FIG. 4, thirty Sprague Dawley male rats were adapted for one week so that each of their weights at the onset of treatment was approximately 185 grams. Each treatment group consisted of six animals, each administered one of the following treatments: water, 20 mg/kg GlcNBu, 200 mg/kg GlcNBu, 2000 mg/kg GlcNBu of 2000 mg/kg GlcN. All animals were fed Purina Rat Chow and water ad libitum. […] For nine days, the compounds were administered using the gavage technique; half doses being administered at 08:00 and at 17:00. Final urine samples were collected, histological examinations were performed to identify any overt signs of damage and then samples from each were harvested. Urinanalysis was performed using reagent strips (Multistix 8 SG from Bayer Inc. Healthcare Division, Etobicoke ON). […] No symptoms of neurological damage such as seizures or problems with vision were observed. All animals were well groomed and clean, and their snouts were normal.

[4] = Setnikar I et al. Arzneimittelforschung 1986; cited from earlier work
[5] = Experiment 2: weight gain of rats restricted to 10 g (later 15 g) chow/day, supplement dissolved in water then solid; assay type: in vivo, Sprague Dawley male rats
Procedure: The animals were maintained in metabolic cages for the duration of the study (FIG. 2). Parameters of behavior and physical appearance were observed daily for any indications of toxicological complications. Twelve Sprague Dawley male rats were restricted to 10 g of Purina Rat Chow per day for eight days. Treatment groups were provided with water containing 20 mg/mL GlcN or GlcNBu. Daily volumes of urine produced and water consumed were recorded. The mean water consumption (ml/day) for the three groups was: 22.80, 24.45 and 21.45 for the control, the GlcN-supplemented and the GlcNBu-supplemented groups, respectively. These values were not statistically significant. On day nine of the study, untreated water was provided and the mass of rat chow given daily was increased to 15 g, supplemented with an additional 1.0 g of solid treatment compound. On day 18, the animals were sacrificed by CO2 asphyxiation and their organs were inspected for damage.

[6] = Experiment 3: weight gain of rats restricted to 10 g chow/day and gavaged with supplement; assay type: in vivo, Sprague Dawley male rats; details: 300 mg by gavage three times daily, by the eighth day of treatment
Procedure: The weights, and behavioral and physical parameters of 20 Sprague Dawley male rats, 5 per treatment group, were monitored over a ten-day period. The control group was given Purina Rat Chow ad libitum. The treatment groups were restricted to 10 g of rat chow per day and were supplemented with one of 300 mg GlcNBu, 300 mg GlcN or water, administered by gavage three times daily (FIG. 3). The animals were then sacrificed by CO2 asphyxiation and their organs checked for signs of damage.

[7] = Experiment 4: toxicity observations (behaviour, histological examination, urinanalysis); assay type: in vivo; details: gavage nine days; GlcN 2000 mg/kg, GlcNBu 20, 200, 2000 mg/kg; data not shown
Procedure: as §1

| SMILES | average weights and rates of weight gain and growth [1] | average rates of weight gain and growth and body weights [1] | stimulation of weight gain and growth (overall, Experiment 1) [1] | mean density value of autoradiograms in the region of the epiphyseal growth plate (area under scan curve; black = 0, white = 255) (epiphyseal growth plate) | incorporation of radioisotope into sulfated glycosaminoglycans of proteoglycans of the epiphyseal growth plates, compared to control (epiphyseal growth plate) | rate of weight gain and growth compared to control animals [2] | effect on weight gain ([3]; nine days) | concentrations of free glucosamine in the circulation after ingestion [4] | weight gained over the water controls ([5]; 20 mg/mL in water for 8 days, then 1.0 g solid with 15 g chow, maintained after five days of treatment) | growth compared to the GlcN group ([5]; starting at about day 10) | increase in weight compared to the same amount of GlcN [6] | increase in weights compared to water controls ([3]; 20 mg/kg by gavage, by day 3) | average weight gain compared to the GlcN group (2000 mg/kg) ([3]; 20 mg/kg by gavage, margin became insignificant by day seven) | increase in weights compared to water controls ([3]; 200 mg/kg by gavage, by day 5) | average weight gain compared to the GlcN group (2000 mg/kg) ([3]; 200 mg/kg by gavage, significantly heavier by day 4) | dose of maximal stimulatory effect on weight gain and growth ([3]; gavage, nine days, doses 20, 200, 2000 mg/kg) | histological examinations for signs of toxicity [7] | upper limit of feeding in terms of observed toxicity ([2]; oral feeding, rats) |
| --- | --- | --- | --- | --- | --- | --- | --- | --- | --- | --- | --- | --- | --- | --- | --- | --- | --- | --- |
| O=C[C@H](O)[C@@H](O)[C@H](O)[C@H](O)CO [Glc, D-glucose, reference compound] | essentially identical | no difference | failed to stimulate growth or weight gain | 127.1 | (relatively small) stimulation of epiphyseal plate metabolism | no significant change |  |  |  |  |  |  |  |  |  |  |  |  |
| N[C@H]1C(O)O[C@H](CO)[C@@H](O)[C@@H]1O (stereo partly shown) [GlcN, glucosamine] |  |  |  |  |  | decrease in the rate of weight gain and growth | depression of weight gain | only very low or not detectable concentrations |  |  |  |  |  |  |  |  |  |  |
| CCCC(=O)N[C@H]1C(O)O[C@H](CO)[C@@H](O)[C@@H]1O (stereo partly drawn) [GlcNBu, N-butyryl-D-glucosamine] | significantly higher than those of the other groups | further increase in the rate and average body weights | stimulated the weight gain and growth | 143.2 | less incorporation of the radioisotope |  | lesser stimulations, which were, nevertheless, higher than the control |  | consistent statistical differences in weight gained over the water controls | grew somewhat more rapidly | significantly greater increase in weight | statistically significant from those of the water controls | significantly higher | statistically significant from those of the water controls | significantly higher | 200 mg/kg | failed to reveal any signs of toxicity | no upper limit |
